In ChEMBL document CHEMBL3991601, “The target landscape of clinical kinase drugs” (Science, 2017):
Active and inactive are the calls of the source. Rule as the data show it, for most assays here: actives have a measured Kd and inactives only a lower limit.

Assays:
[1] = target: Bone morphogenetic protein receptor type-1B (Homo sapiens, UniProt O00238)
[2] = target: T1, ATP-dependent RNA helicase DDX42 (Homo sapiens, UniProt Q86XP3)
T1 sequence (Q86XP3 whole entry): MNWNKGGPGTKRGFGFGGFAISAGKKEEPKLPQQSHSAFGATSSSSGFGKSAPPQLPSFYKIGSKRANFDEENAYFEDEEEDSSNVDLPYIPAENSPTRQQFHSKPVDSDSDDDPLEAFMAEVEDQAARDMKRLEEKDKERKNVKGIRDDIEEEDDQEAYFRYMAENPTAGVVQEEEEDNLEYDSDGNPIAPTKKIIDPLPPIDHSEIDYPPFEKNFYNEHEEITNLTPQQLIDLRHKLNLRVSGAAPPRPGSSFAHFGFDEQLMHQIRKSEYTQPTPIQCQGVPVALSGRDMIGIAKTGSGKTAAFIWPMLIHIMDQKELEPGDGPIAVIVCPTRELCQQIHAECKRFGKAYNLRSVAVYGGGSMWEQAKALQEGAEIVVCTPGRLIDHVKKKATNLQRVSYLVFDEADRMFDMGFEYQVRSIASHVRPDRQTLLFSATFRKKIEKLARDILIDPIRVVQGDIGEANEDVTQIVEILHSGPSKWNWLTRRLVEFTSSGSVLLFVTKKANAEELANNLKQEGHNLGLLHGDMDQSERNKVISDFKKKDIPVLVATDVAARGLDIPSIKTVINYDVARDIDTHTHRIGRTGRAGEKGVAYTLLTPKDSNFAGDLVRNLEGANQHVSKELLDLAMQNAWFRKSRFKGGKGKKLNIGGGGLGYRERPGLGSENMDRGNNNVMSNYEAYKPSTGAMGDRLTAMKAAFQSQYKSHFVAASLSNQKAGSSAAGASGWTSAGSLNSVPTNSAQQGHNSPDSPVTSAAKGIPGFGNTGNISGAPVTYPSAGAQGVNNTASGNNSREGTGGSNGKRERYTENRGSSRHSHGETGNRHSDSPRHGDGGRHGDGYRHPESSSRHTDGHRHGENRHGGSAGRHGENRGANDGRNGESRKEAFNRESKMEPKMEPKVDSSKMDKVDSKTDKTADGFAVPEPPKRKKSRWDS

[3] = target: Ephrin type-A receptor 2 (Homo sapiens, UniProt P29317)
Chain of Ephrin type-A receptor 2 (P29317 whole entry, the tested form may be a part): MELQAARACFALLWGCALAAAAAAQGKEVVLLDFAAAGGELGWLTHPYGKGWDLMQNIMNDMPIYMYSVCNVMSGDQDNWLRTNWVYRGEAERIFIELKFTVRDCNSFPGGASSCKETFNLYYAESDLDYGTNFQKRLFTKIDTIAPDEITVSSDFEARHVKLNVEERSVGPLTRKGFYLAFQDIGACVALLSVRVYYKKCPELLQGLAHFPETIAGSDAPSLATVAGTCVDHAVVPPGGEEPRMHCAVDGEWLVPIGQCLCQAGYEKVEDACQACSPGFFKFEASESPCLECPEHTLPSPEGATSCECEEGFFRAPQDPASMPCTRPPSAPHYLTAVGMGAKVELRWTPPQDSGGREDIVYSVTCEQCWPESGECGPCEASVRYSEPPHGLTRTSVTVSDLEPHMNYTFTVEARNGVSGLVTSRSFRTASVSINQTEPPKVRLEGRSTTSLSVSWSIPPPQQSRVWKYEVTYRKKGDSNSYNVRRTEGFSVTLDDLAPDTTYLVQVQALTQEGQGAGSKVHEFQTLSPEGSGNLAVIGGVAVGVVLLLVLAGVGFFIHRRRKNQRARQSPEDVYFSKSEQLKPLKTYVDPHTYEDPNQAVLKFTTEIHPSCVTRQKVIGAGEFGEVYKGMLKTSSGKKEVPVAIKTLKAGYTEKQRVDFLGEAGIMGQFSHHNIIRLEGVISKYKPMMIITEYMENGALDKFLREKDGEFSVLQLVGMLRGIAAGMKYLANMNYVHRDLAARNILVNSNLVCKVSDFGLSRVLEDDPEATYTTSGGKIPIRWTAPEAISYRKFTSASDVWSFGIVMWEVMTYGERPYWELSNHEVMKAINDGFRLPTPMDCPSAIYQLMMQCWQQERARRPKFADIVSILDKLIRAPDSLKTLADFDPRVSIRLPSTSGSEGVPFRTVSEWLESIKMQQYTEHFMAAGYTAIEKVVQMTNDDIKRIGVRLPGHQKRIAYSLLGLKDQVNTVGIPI

[4] = target: LIM domain kinase 2 (Homo sapiens, UniProt P53671)
Chain of LIM domain kinase 2 (P53671 whole entry, the tested form may be a part): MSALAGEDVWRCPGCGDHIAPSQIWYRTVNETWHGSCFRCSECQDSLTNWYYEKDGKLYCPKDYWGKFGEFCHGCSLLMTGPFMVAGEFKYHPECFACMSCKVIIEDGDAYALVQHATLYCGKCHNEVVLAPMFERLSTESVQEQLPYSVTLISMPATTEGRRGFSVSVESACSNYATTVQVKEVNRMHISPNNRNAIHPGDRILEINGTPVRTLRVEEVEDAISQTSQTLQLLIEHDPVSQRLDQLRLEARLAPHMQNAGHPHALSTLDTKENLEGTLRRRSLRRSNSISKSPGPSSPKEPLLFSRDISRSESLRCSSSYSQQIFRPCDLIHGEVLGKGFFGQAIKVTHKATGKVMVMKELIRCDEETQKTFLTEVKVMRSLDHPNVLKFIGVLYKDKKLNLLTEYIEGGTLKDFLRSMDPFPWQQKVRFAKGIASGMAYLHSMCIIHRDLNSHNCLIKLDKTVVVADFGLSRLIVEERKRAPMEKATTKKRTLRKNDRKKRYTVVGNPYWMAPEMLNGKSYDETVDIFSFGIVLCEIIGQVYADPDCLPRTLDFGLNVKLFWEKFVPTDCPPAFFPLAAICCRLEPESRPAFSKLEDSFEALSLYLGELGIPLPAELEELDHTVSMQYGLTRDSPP

[5] = target: T2, Mitogen-activated protein kinase kinase kinase 6 (Homo sapiens, UniProt O95382)
T2 sequence (O95382 whole entry): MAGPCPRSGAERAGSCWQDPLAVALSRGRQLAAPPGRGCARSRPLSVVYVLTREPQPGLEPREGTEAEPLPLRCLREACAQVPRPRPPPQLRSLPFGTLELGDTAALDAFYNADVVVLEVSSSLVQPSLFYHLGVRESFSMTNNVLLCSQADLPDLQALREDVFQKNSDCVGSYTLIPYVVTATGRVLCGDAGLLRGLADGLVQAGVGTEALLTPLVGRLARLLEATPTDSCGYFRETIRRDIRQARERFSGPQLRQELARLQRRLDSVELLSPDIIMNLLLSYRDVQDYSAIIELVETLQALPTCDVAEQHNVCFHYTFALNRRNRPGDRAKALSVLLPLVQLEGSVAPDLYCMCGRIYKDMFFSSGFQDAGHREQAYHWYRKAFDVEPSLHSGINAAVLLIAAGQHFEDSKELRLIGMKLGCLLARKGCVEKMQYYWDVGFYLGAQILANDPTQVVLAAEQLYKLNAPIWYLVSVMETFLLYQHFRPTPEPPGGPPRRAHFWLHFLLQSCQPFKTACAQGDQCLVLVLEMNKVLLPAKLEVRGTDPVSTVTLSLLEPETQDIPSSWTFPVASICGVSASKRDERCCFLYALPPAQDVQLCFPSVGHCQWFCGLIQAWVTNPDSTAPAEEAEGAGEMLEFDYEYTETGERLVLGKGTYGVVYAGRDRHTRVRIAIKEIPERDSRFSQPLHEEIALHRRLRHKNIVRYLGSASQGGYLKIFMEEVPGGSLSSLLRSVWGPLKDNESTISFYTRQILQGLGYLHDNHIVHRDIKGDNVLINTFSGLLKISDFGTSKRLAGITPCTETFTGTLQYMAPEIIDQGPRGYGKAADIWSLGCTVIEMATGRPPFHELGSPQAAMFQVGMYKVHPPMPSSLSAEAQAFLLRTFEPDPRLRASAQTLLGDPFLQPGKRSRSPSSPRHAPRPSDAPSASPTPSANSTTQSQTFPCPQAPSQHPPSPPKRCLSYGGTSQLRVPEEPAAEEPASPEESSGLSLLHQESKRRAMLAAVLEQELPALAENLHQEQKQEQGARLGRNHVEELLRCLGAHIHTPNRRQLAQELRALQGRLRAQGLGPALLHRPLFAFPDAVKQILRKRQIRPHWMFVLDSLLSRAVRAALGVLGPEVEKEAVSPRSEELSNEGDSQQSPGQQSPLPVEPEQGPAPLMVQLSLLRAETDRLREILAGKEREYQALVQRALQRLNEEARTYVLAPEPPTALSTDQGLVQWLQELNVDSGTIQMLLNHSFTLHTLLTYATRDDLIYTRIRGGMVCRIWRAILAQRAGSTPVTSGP

[6] = target: Mitogen-activated protein kinase 8 (Homo sapiens, UniProt P45983)
Chain of Mitogen-activated protein kinase 8 (P45983 whole entry): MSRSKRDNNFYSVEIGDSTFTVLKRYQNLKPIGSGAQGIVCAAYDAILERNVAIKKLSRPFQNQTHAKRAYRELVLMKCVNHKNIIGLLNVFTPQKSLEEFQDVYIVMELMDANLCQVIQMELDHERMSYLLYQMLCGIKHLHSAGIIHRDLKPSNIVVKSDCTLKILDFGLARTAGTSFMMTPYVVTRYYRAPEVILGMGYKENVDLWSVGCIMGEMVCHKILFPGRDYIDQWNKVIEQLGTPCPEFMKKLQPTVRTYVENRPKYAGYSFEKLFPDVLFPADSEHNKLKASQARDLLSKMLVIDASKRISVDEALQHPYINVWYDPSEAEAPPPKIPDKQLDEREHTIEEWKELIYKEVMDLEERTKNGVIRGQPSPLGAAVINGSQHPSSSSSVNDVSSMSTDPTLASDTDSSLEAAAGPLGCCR

[7] = target: cAMP-dependent protein kinase catalytic subunit alpha (Homo sapiens, UniProt P17612)
[8] = target: Ribosomal protein S6 kinase alpha-6 (Homo sapiens, UniProt Q9UK32)
Chain of Ribosomal protein S6 kinase alpha-6 (Q9UK32 whole entry): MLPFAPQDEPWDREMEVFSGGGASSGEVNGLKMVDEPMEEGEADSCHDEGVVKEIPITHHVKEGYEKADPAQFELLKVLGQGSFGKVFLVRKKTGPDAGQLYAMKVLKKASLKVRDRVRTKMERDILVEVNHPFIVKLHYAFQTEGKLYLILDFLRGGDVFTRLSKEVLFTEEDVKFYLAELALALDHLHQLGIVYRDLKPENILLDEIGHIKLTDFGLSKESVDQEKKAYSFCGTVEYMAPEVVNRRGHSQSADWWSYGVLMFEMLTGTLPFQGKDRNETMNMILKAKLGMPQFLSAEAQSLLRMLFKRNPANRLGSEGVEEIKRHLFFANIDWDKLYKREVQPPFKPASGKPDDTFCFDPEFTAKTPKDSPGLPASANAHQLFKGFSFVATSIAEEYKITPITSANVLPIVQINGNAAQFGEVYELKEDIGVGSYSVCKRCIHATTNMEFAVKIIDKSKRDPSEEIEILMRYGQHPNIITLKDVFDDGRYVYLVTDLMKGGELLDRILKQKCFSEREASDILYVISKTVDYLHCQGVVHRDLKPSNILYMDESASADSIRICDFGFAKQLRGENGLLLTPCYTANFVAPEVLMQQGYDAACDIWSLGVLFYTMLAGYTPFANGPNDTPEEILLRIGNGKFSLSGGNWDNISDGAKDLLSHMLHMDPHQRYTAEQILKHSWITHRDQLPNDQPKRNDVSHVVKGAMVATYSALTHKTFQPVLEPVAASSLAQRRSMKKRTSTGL

[9] = target: T3, Serine/threonine-protein kinase ULK3 (Homo sapiens, UniProt Q6PHR2)
T3 sequence (Q6PHR2 whole entry): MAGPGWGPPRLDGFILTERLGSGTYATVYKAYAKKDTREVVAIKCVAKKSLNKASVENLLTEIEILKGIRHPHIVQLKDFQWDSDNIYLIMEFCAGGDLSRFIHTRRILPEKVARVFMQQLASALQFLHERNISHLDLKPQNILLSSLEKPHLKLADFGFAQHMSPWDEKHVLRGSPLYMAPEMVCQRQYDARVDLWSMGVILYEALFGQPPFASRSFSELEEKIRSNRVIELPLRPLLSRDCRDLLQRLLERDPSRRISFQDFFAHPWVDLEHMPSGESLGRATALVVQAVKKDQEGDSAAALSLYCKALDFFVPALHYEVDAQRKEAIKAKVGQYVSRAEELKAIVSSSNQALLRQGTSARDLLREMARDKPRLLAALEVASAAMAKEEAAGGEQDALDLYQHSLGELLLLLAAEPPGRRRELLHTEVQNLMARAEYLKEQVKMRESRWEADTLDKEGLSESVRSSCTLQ

Measured: Kd
Also: in the data inactive means no Kd found up to 30 µM.

Chain of Bone morphogenetic protein receptor type-1B (O00238 whole entry): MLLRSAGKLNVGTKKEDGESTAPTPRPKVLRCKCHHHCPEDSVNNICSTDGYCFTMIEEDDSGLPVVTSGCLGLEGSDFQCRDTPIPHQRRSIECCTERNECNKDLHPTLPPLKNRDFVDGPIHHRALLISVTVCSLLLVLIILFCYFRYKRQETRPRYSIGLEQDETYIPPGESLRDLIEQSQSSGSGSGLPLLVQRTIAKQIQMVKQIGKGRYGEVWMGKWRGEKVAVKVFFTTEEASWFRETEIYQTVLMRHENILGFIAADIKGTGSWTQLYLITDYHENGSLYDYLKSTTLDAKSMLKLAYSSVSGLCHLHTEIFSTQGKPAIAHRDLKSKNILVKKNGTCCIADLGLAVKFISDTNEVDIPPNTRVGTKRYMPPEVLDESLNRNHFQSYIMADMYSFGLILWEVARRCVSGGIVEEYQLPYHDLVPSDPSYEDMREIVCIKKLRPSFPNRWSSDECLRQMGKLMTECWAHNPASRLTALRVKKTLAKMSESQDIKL

COc1cccc2cc(-c3nc([C@H]4CC[C@H](C(=O)O)CC4)n4ncnc(N)c34)[nH]c12 [OSI-027]
inactive: [1] > 30 µM | [2] > 30 µM | [3] > 30 µM | [4] > 30 µM | [5] > 30 µM | [6] > 30 µM | [7] > 30 µM | [8] > 30 µM | [9] > 30 µM

O=C(NC[C@H](O)CO)c1ccncc1Nc1ccc(I)cc1F [PIMASERTIB]
inactive: [1] > 30 µM | [2] > 30 µM | [3] > 30 µM | [4] > 30 µM | [5] > 30 µM | [6] > 30 µM | [7] > 30 µM | [8] > 30 µM | [9] > 30 µM

O=c1[nH]c([C@@H]2CCCN2)nc2c1oc1ccc(Cl)cc12
inactive: [1] > 30 µM | [2] > 30 µM | [3] > 30 µM | [4] > 30 µM | [5] > 30 µM | [6] > 30 µM | [7] > 30 µM | [8] > 30 µM | [9] > 30 µM

COc1ccc(-c2ccc3ncc4c(c3c2)n(-c2ccc(N3CCNCC3)c(C(F)(F)F)c2)c(=O)n4C)cn1 [BGT-226 FREE BASE]
inactive: [1] > 30 µM | [2] > 30 µM | [3] > 30 µM | [4] > 30 µM | [5] > 30 µM | [6] > 30 µM | [7] > 30 µM | [8] > 30 µM | [9] > 30 µM

CC(C)CC(=O)Nc1[nH]nc2c1CN(C(=O)C1CCN(C)CC1)C2(C)C [PHA-793887]
inactive: [1] > 30 µM | [2] > 30 µM | [3] > 30 µM | [4] > 30 µM | [5] > 30 µM | [6] > 30 µM | [7] > 30 µM | [8] > 30 µM | [9] > 30 µM
